From US10294202B2, “Pyrrolidinones as herbicides” (FMC Corporation, priority 2013, dated 2019)

Legend:
ragweed = experiment: Test A pre-/postemergence herbicide test; type: in vivo, Ambrosia elatior; settings: for Plant response rating, Ragweed: 0 to 100 scale
Method in brief: (§1)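 Planted in loam–sand blend; treated the same day preemergence by directed soil spray, while separately grown plants at one- to two-leaf stage got postemergence spray. Compared visually with untreated controls after approximately 10 days; 100 means complete control.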

wheat = experiment: Test A pre-/postemergence herbicide test; type: in vivo, Triticum aestivum
Method in brief: as §1

barnyardgrass [1] = experiment: Test B flooded paddy test; type: in vivo, Echinochloa crus-galli; settings: Flood, scale of 0 to 100 where 0 is no effect and 100 is complete control
Method in brief: (§2)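 Plants grown to 2-leaf stage; pots flooded 3 cm above soil and compound applied directly into paddy water, depth held throughout. Visual rating against untreated controls after 13 to 15 days in greenhouse, 0 (no effect) to 100 (complete control).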

galium = experiment: Test A postemergence herbicide test; type: in vivo, Galium aparine
Method in brief: (§3)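 Injury was rated visually about 10 days after treatment on a 0 (no effect) to 100 (complete control) scale, compared with untreated plants. Test chemicals were sprayed postemergence onto greenhouse plants 2–10 cm high at one to two leaves, grown in a loam–sand blend.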

pigweed = experiment: Test A pre-/postemergence herbicide test; type: in vivo, Amaranthus retroflexus
Method in brief: as §1

rice = experiment: Test B flooded paddy test; type: in vivo, Oryza sativa; settings: Flood, scale of 0 to 100 where 0 is no effect and 100 is complete control
Method in brief: as §2

kochia = experiment: Test A pre-/postemergence herbicide test; type: in vivo, Kochia scoparia; settings: for Plant response rating, Kochia: 0 to 100 scale
Method in brief: as §1

blackgrass = experiment: Test A postemergence herbicide test; type: in vivo, Alopecurus myosuroides
Method in brief: as §3

corn = experiment: Test A pre-/postemergence herbicide test; type: in vivo, Zea mays
Method in brief: as §1

barnyardgrass [2] = experiment: Test A pre-/postemergence herbicide test; type: in vivo, Echinochloa crus-galli
Method in brief: as §1

ryegrass, Italian = experiment: Test A pre-/postemergence herbicide test; type: in vivo, Lolium multiflorum; settings: for Plant response rating, Ryegrass, Italian: 0 to 100 scale
Method in brief: as §1

ducksalad = experiment: Test B flooded paddy test; type: in vivo, Heteranthera limosa; settings: Flood, scale of 0 to 100 where 0 is no effect and 100 is complete control
Method in brief: as §2

sedge, umbrella = experiment: Test B flooded paddy test; type: in vivo, Cyperus difformis; settings: Flood, scale of 0 to 100 where 0 is no effect and 100 is complete control
Method in brief: as §2

giant foxtail = experiment: Test A pre-/postemergence herbicide test; type: in vivo, Setaria faberii
Method in brief: as §1

crabgrass, large = experiment: Test A pre-/postemergence herbicide test; type: in vivo, Digitaria sanguinalis
Method in brief: as §1

morningglory = experiment: Test A pre-/postemergence herbicide test; type: in vivo, Ipomoea spp.
Method in brief: as §1

velvetleaf = experiment: Test A pre-/postemergence herbicide test; type: in vivo, Abutilon theophrasti
Method in brief: as §1

[3] = 125 g ai/ha, visual rating, 0 no effect, 100 complete control, approximately 10 days, preemergence
[4] = Postemergence, 125 g ai/ha, 0 is no effect, 100 is complete control
[5] = preemergence, 500 g ai/ha, 0 is no effect and 100 is complete control
[6] = Postemergence, 125 g ai/ha, 0 to 100 scale, 0 is no effect, 100 is complete control
[7] = 125 g ai/ha, 0 to 100 scale, 0 is no effect, 100 is complete control
[8] = 125 g ai/ha, visual rating, 0 to 100 scale, 0 no effect, 100 complete control, approximately 10 days, preemergence
[9] = preemergence, 500 g ai/ha, 0 to 100 scale (0 no effect, 100 complete control)
[10] = preemergence, 500 g ai/ha, 0 to 100 scale
[11] = Postemergence, 125 g ai/ha, 0 to 100 scale, 0 no effect, 100 complete control
[12] = Postemergence, 500 g ai/ha, 0 to 100 scale (0 no effect, 100 complete control)
[13] = Preemergence, 125 g ai/ha, visual rating on 0 to 100 scale (0 no effect, 100 complete control)

With CCc1cccc(C2CNC(=O)C2C(=O)Nc2ccccc2F)c1 (racemic) [Compound 169] the “Plant response rating, Ragweed” value (ragweed; [3]) was 0, the “Plant response rating, Ragweed” value (ragweed; [4]) was 0 and the “Ragweed plant response rating (0 to 100 scale, 0 is no effect, 100 is complete control)” value (ragweed; Postemergence, 500 g ai/ha) was 0. The “Plant response rating, Ragweed” value (ragweed; [5]) was 20, the “Plant response rating, Wheat” value (wheat; [6]) was 0 and the “Wheat plant response rating (0 to 100 scale, 0 is no effect, 100 is complete control)” value (wheat; Postemergence, 500 g ai/ha) was 50. For the same compound, the “Plant response rating, Barnyardgrass” value (barnyardgrass [1]; 500 g ai/ha) was 80, the “Plant response rating, Galium” value (galium; [7]) was 20 and the “Galium plant response rating (0 to 100 scale, 0 is no effect, 100 is complete control)” value (galium; 500 g ai/ha) was 50. For the same compound, the “Plant response rating, Pigweed” value (pigweed; [8]) was 0, the “Plant response rating, Pigweed” value (pigweed; [6]) was 0 and the “Pigweed plant response rating (0 to 100 scale, 0 is no effect, 100 is complete control)” value (pigweed; Postemergence, 500 g ai/ha) was 0. For the same compound, the “Plant response rating, Pigweed” value (pigweed; preemergence, 500 g ai/ha, 0 to 100 scale, 0 is no effect and 100 is complete control) was 20, the “Plant response rating, Rice” value (rice; 500 g ai/ha) was 0 and the “Plant response rating, Kochia” value (kochia; [3]) was 40. The “Plant response rating, Kochia” value (kochia; [4]) was 0, the “Kochia plant response rating (0 to 100 scale, 0 is no effect, 100 is complete control)” value (kochia; Postemergence, 500 g ai/ha) was 40 and the “Plant response rating, Kochia” value (kochia; [5]) was 60. The “Plant response rating, Blackgrass” value (blackgrass; [7]) was 30, the “Blackgrass plant response rating (0 to 100 scale, 0 is no effect, 100 is complete control)” value (blackgrass; 500 g ai/ha) was 60 and the “Plant response rating, Corn” value (corn; [6]) was 0. The “Corn plant response rating (0 to 100 scale, 0 is no effect, 100 is complete control)” value (corn; Postemergence, 500 g ai/ha) was 50, the “Plant response rating, Barnyardgrass” value (barnyardgrass [2]; [8]) was 90 and the “Plant response rating, Barnyardgrass” value (barnyardgrass [2]; [6]) was 90. The “Barnyardgrass plant response rating (0 to 100 scale, 0 is no effect, 100 is complete control)” value (barnyardgrass [2]; Postemergence, 500 g ai/ha) was 90, the “Plant response rating, Barnyardgrass” value (barnyardgrass [2]; [9]) was 90 and the “Plant response rating, Ryegrass, Italian” value (ryegrass, Italian; [3]) was 0. The “Plant response rating, Ryegrass, Italian” value (ryegrass, Italian; [4]) was 20, the “Ryegrass, Italian plant response rating (0 to 100 scale, 0 is no effect, 100 is complete control)” value (ryegrass, Italian; Postemergence, 500 g ai/ha) was 40 and the “Plant response rating, Ryegrass, Italian” value (ryegrass, Italian; [5]) was 20. For the same compound, the “Plant response rating, Ducksalad” value (ducksalad; 500 g ai/ha) was 100, the “Plant response rating, Sedge, Umbrella” value (sedge, umbrella; 500 g ai/ha) was 0 and the “Plant response rating, Foxtail, Giant” value (giant foxtail; [8]) was 80. For the same compound, the “Plant response rating, Foxtail, Giant” value (giant foxtail; [6]) was 60, the “Foxtail, Giant plant response rating (0 to 100 scale, 0 is no effect, 100 is complete control)” value (giant foxtail; Postemergence, 500 g ai/ha) was 90 and the “Plant response rating, Foxtail, Giant” value (giant foxtail; [10]) was 90.

O=C1NCC(c2ccc(F)c(F)c2)C1C(=O)Nc1ccccc1OC(F)(F)F (stereo not drawn) [Compound 54] was tested, and the “Plant response rating, Wheat” value (wheat; [11]) was 0, the “Plant response rating, Wheat” value (wheat; [12]) was 0 and the “Wheat plant response rating” value (wheat; [13]) was 0. For the same compound, the “Plant response rating, Wheat” value (wheat; [10]) was 20, the “Plant response rating, Barnyardgrass” value (barnyardgrass [1]; 250 g ai/ha) was 0 and the “Plant response rating, Pigweed” value (pigweed; [11]) was 0. The “Plant response rating, Pigweed” value (pigweed; [12]) was 0, the “Pigweed plant response rating” value (pigweed; [13]) was 0 and the “Plant response rating, Pigweed” value (pigweed; [10]) was 0. The “Plant response rating, Rice” value (rice; 250 g ai/ha) was 20, the “Plant response rating, Crabgrass, Large” value (crabgrass, large; [11]) was 70 and the “Plant response rating, Crabgrass, Large” value (crabgrass, large; [12]) was 80. For the same compound, the “Crabgrass, Large plant response rating” value (crabgrass, large; [13]) was 90, the “Plant response rating, Crabgrass, Large” value (crabgrass, large; [10]) was 90 and the “Plant response rating, Corn” value (corn; [11]) was 0. The “Plant response rating, Corn” value (corn; [12]) was 0, the “Corn plant response rating” value (corn; [13]) was 0 and the “Plant response rating, Corn” value (corn; [10]) was 0. The “Plant response rating, Barnyardgrass” value (barnyardgrass [2]; [11]) was 0, the “Plant response rating, Barnyardgrass” value (barnyardgrass [2]; [12]) was 0 and the “Barnyardgrass plant response rating” value (barnyardgrass [2]; [13]) was 0. For the same compound, the “Plant response rating, Barnyardgrass” value (barnyardgrass [2]; [9]) was 20, the “Plant response rating, Morningglory” value (morningglory; [11]) was 0 and the “Plant response rating, Morningglory” value (morningglory; [12]) was 0. The “Morningglory plant response rating” value (morningglory; [13]) was 0, the “Plant response rating, Morningglory” value (morningglory; [10]) was 0 and the “Plant response rating, Ducksalad” value (ducksalad; 250 g ai/ha) was 70. For the same compound, the “Plant response rating, Velvetleaf” value (velvetleaf; [11]) was 0, the “Plant response rating, Velvetleaf” value (velvetleaf; [12]) was 0 and the “Velvetleaf plant response rating” value (velvetleaf; [13]) was 0. The “Plant response rating, Velvetleaf” value (velvetleaf; [10]) was 0, the “Plant response rating, Sedge, Umbrella” value (sedge, umbrella; 250 g ai/ha) was 0 and the “Plant response rating, Foxtail, Giant” value (giant foxtail; [11]) was 60. The “Plant response rating, Foxtail, Giant” value (giant foxtail; [12]) was 70, the “Foxtail, Giant plant response rating” value (giant foxtail; [13]) was 90 and the “Plant response rating, Foxtail, Giant” value (giant foxtail; [10]) was 90.
